The results in this text go back to US6043248A, “Alpha-substituted pyrimidine-thioalkyl and alkylether compounds as inhibitors of viral reverse transcriptase” (priority 1997, dated 2000).

In assay [1] the target is T1, P236L viral reverse transcriptase (Human immunodeficiency virus type 1 group M subtype B, UniProt P04585, P823L).
T1 construct: P236L viral reverse transcriptase is obtained by PNAS 90: 4713-4717 (1993); made in house
Put plainly: inhibition of viral reverse transcriptase (P236L), cell free assay. It is filed as biochemical. As to conditions: IC50 (Table I, P236L), 30 minutes at 37° C. The gist of the method:
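E. coli-expressed wild-type or P236L RT extracts incubated with inhibitor 30 min at 37 °C in Tris pH 8.3 with MgCl₂, NaCl, DTT, NP-40, 10 μM [35S]-dNTP, poly rC/rG template and oligo dG/dT primer. Incorporated label counted on DE81 paper; reported as % inhibition and/or IC50.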

Assay [2] deals with T2, viral reverse transcriptase (Wild Type) (Human immunodeficiency virus type 1 group M subtype B, UniProt P04585).
T2 construct: Viral reverse transcriptase (Wild Type) is found in extracts from bacterial clones; made in house; host or cells: Escherichia coli
As to the kind of experiment: inhibition of viral reverse transcriptase (Wild Type), cell free assay. It is filed as biochemical. The source says: The utility of the pyrimidine-thioalkyl and alkylether anti-AIDS compounds of Formula IA of this invention can be determined by their ability to inhibit viral reverse transcriptase, an enzyme essential for human immunodeficiency virus replication. This enzyme has characteristics which differentiate it from other known cellular polymerases and it is a unique enzyme which is not found in uninfected cells. Viral reverse transcriptase (Wild Type) is found in extracts from bacterial clones prepared according to the procedure described in AIDS Virus Reverse Transcriptase defined by high level expression in Escherichia coli, EMBO J. 6:3133-3137 (1987). P236L viral reverse transcriptase is obtained by PNAS 90: 4713-4717 (1993). Inhibition of this enzyme is determined in a cell free assay which measures the level of radioactive precursors incorporated into DNA. Extracts prepared according to the procedure of Science, 1125-1129 (1981) are incubated in a mixture of inhibitor, 20 mM dithiothreitol, 60 mM sodium chloride, 0.05% NP-40, 10 mM magnesium chloride, 50 mM Tris pH 8.3, 10 μM [^35 S]-labeled deoxynuleoside-5'-triphosphate, 10 μg/ml RNA template (poly rC or poly rG) and 5 μg/ml DNA primer (oligo dG or oligo dT) for 30 minutes at 37° C. Incorporation of radio-labeled percursor is determined by spotting aliquots of the reaction mixture on DE81 paper, washing the papers to remove unincorporated percursor, drying and determining counts. The results (IC50 means the concentration, in μM of drug, required to inhibit the reverse transcriptase activity (P236L and Wild Type) to the extent of 50%) of various assay(s) are combined and reported as % inhibition and/or IC50 (calculated) in Table I (P236L) and Table II (Wild Type).

Where [3] appears, read: 30 minutes at 37° C., read-out: IC50 (Table II, Wild Type).

Where “and” joins values, the source holds several entries; their conditions need not be identical. Identical values can stand only once. Like-named read-outs stand apart in the source and are kept apart here.

One may read the IC50 as the concentration that gives 50% inhibition. Broadly, the inhibition is the share of the control response that was lost under treatment. Lower therefore signals little suppression.

As for `CC(Sc1nc(N)cc(C(F)(F)F)n1)c1cc2c(cn1)CCCC2` (stereo not shown) [Example 234, 4-Amino-6-trifluoromethyl-2-(1-(3-(5,6,7,8-tetrahydro-isoquinolyl))ethyl)thio-pyrimidine], the IC50 in assay [1] was determined as 170 nM; in assay [2] (setting [3]), 131 nM.
In the case of `CC(C)COc1ccc(C(C)Sc2nc(N)cc(Cl)n2)nc1Cl` (stereo not shown) [Example 307, 4-amino-6-chloro-2-(((5-isobutoxy-6-chloro)-2-pyridyl)-ethyl)thio-pyrimidine], the IC50 is 1000 nM in assay [1] and 5000 nM in assay [2] (setting [3]).
For the compound `CCc1cc(C(C)Sc2nc(N)cc(Cl)n2)ncc1OC` (stereo not shown) [Example 245, 4-Amino-6-chloro-2-(1-(4-ethyl-5-methoxy-2-pyridyl)ethyl)thio-pyrimidine], the IC50 in assay [1] came out at 191 nM; in assay [2] (setting [3]), 343 nM.
For the compound `CC(C)c1ccnc(C(C)Sc2nc(N)cc(Cl)n2)c1` (stereo not shown) [Example 223, 4-Amino-6-chloro-2-(1-(4-(1-methylethyl)-2-pyridyl)ethyl)thio-pyrimidine], the IC50 was 68 nM in assay [1] and 60 nM in assay [2] (setting [3]).
Taken in the same sequence, the figures for `COC(=O)/C=C/CSc1nc(N)cc(Cl)n1` [Example 193, (E)-4-[(4-Amino-6-chloro-2-pyrimidinyl)thio]-2-butenoic acid methyl ester] were 930 nM and 5250 nM.
`CC(Sc1nc(N)cc(Cl)n1)c1cc(C2CCCCC2)ccn1` (stereo not shown) [Example 257]: in assay [1], the IC50 worked out at 500 nM. Also, the inhibition at 10 µM in assay [2] was 78%.
In the case of `C=C(C)c1ccnc(C(C)Sc2nc(N)cc(Cl)n2)c1` (stereo not shown) [Example 221, 4-Amino-6-chloro-2-(1-(4-(1-methylethenyl)-2-pyridyl)ethyl)thio-pyrimidine], the IC50 in assay [1] came to 39 nM; in assay [2] (setting [3]) it was 19 nM.
Taken in the same sequence, the figures for `CC(Sc1nc(N)cc(Cl)n1)c1cc2ccoc2c(Cl)n1` (stereo not shown) [Example 237, 4-Amino-6-chloro-2-(1-(7-chlorofuro[2,3c]pyridine-5-yl)ethyl)thio-pyrimidine] were 26 nM and 15 nM.
Taken in the same sequence, the figures for `Cc1coc2c(Cl)nc(C(C)Sc3nc(N)cc(C(F)(F)F)n3)cc12` (stereo not shown) [Example 295, 4-Amino-2-(1-(7-chloro-3-methyl-furo[2,3c]pyridin-5-yl)ethylthio)-6-trifluoromethyl-pyrimidine] were 249 nM and 212 nM.
On to `Cc1coc2cnc([C@H](C)Sc3nc(N)cc(Cl)n3)cc12` [Example 290, (S)-(-)-4-Amino-6-chloro-2-(1-(3-methylfuro[2,3c]pyridine-5-yl)ethyl)thio-pyrimidine], for which the IC50 in assay [1] came to 14 nM; in assay [2] (setting [3]), 25 nM.
For `CCc1ccnc([C@H](C)Sc2nc(N)cc(Cl)n2)c1` [Example 292, (-)-4-Amino-6-chloro-2-(1-(4-ethyl-2-pyridyl)ethyl)thio-pyrimidine], the IC50 in assay [1] was 17 nM; in assay [2] (IC50 (Table II, Wild Type), 30 minutes at 37° C.), 7 nM.
Consider `Nc1cc(C(F)(F)F)nc(SCc2ccc3ccccc3c2)n1` [Example 270, 4-amino-6-trifluoromethyl-2-(2-naphthylmethyl)thio-pyrimidine], for which the IC50 in assay [1] was found to be 290 nM; in assay [2] (setting [3]), 434 nM.
Take `CC(Sc1nc(N)cc(Cl)n1)c1cc2ccoc2cn1` (stereo not shown) [Example 238, 4-Amino-6-chloro-2-(1-(furo[2,3-c]pyridin-5-yl)ethyl)thio-pyrimidine]: the IC50 in assay [1] was determined as 11 nM; in assay [2] (setting [3]) it was 7 nM.
As to `CC(Sc1nc(N)cc(Cl)n1)c1cc(C#N)ccn1` (stereo not shown) [Example 214, 4-Amino-6-chloro-2-(1-(4-cyano-2-pyridyl)ethyl)thio-pyrimidine], the IC50 is 178 nM in assay [1] and 487 nM in assay [2] (setting [3]).
Turning to `COC(=O)C(Sc1nc(N)cc(Cl)n1)c1cc(C)ccn1` (stereo not shown) [Example 220, 4-Amino-6-chloro-2-(1-(4-methyl-2-pyridyl)-1-carbomethoxy-methyl)thio-pyrimidine], in assay [1], the IC50 was determined as 50000 nM. The compound further displayed an inhibition at 50 µM in assay [2] of 19%.
For `CC(C)c1ccnc(C(C)Sc2nc(N)c(Br)c(Cl)n2)c1` (stereo not shown) [Example 225], the IC50 is 67 nM in assay [1] and 101 nM in assay [2] (setting [3]).
For `CC(Sc1nc(N)cc(Cl)n1)c1ccc(OCc2ccccc2)c(Cl)n1` (stereo not shown) [Example 303, 4-amino-6-chloro-2-(((5-benzyloxy-6-chloro)-2-pyridyl)-ethyl)thio-pyrimidine], the IC50 in assay [1] came out at 5000 nM; in assay [2] (setting [3]), 50000 nM.
`Cc1cc2cc(C(C)Sc3nc(N)cc(Cl)n3)nc(Cl)c2o1` (stereo not shown) [Example 240, 4-Amino-6-chloro-2-(1-(7-chloro-2-methylfuro[2,3c]pyridin-5-yl)ethyl)thio-pyrimidine]: the IC50 in assay [1] was 116 nM; in assay [2] (setting [3]), 381 nM.
Take `CC(Sc1nc(N)cc(Cl)n1)c1cc(C2CC2)ccn1` (stereo not shown) [Example 255]: the half-inhibitory concentration (IC50) in assay [1] worked out at 100 nM. At 1 µM the inhibition in assay [2] (@ 1 μM) was 96%.
Regarding `CCC(CC)c1ccnc(C(C)Sc2nc(N)cc(Cl)n2)c1` (stereo not shown) [Example 261, 4-amino-6-chloro-2-(1-(4-(1-ethylpropyl)-2-pyridyl)-ethyl)thio-pyrimidine], the results for the IC50 in assay [1] and in assay [2] (setting [3]) were 70 nM and 59 nM, respectively.
`N#Cc1cc(N)nc(SCc2ccc3ccccc3c2)n1` [Example 277, 6-amino-2-(2-naphthylmethyl)thio-4-pyrimidine carbonitrile] yielded an IC50 in assay [1] of 500 nM. The compound also yielded an inhibition at 10 µM in assay [2] of 84%.
As for `CCC(C)c1ccnc(C(C)Sc2nc(N)cc(Cl)n2)c1` (stereo not shown) [Example 256, 4-amino-6-chloro-2-(1-(4-(1-methylpropyl)-2-pyridyl)-ethyl)thio-pyrimidine], the IC50 in assay [1] came out at 100 nM; in assay [2] (setting [3]) it was 93 nM.
Turning to `CC(Sc1nc(N)cc(Cl)n1)c1cc(C(C)(C)C)ccn1` (stereo not shown) [Example 210, 4-Amino-6-chloro-2-(1-(4-(1,1-dimethyl)ethyl-2-pyridyl)ethyl)thio-pyrimidine], the IC50 in assay [1] was determined as 99 nM; in assay [2] (setting [3]) it was 80 nM.
For `N#Cc1cc(Cl)nc(SCc2ccc3ccccc3c2)n1` [Example 276, 6-chloro-2-(2-naphthylmethyl)thio-4-pyrimidine carbonitrile], half-maximal inhibition in assay [1] (IC50) required 50000 nM. The “IC50 (Table II, Wild Type)” value in assay [2] (30 minutes at 37° C.) is “INACTIVE”.
For the compound `CC(Sc1nc(N)cc(C(F)(F)F)n1)c1cc2ccoc2cn1` (stereo not shown) [Example 239, 4-Amino-6-trifluoromethyl-2-(1-(furo[2,3-c]pyridin-5-yl)ethyl)thio-pyrimidine], the values for the half-inhibitory concentration (IC50) in assay [1] and in assay [2] (setting [3]) were 88 nM and 50 nM, respectively.
Taken in the same sequence, the figures for `Cc1coc2cnc([C@@H](C)Sc3nc(N)cc(C(F)(F)F)n3)cc12` [Example 298, (R)-(+)-4-Amino-6-trifluoromethyl-2-(1-(3-methylfuro[2,3c]pyridin-5-yl)ethylthio)-pyrimidine] were 79 nM and 113 nM.
Taken in the same sequence, the figures for `Cc1coc2cnc([C@@H](C)Sc3nc(N)cc(Cl)n3)cc12` [Example 289, (R)-(+)-4-Amino-6-chloro-2-(1-(3-methylfuro[2,3c]pyridine-5-yl)ethyl)thio-pyrimidine] were 14 nM and 29 nM.
On to `Cc1cc2cc(C(C)Sc3nc(N)cc(C(F)(F)F)n3)ncc2o1` (stereo not shown) [Example 243, 4-Amino-6-trifluoromethyl-2-(1-(2-methylfuro[2,3c]pyridine-5-yl)ethyl)thio-pyrimidine], for which the IC50 in assay [1] was 188 nM; in assay [2] (setting [3]), 495 nM.
On to `CC(Sc1nc(N)cc(Cl)n1)c1cc2c(cn1)OCC2(C)C` (stereo not shown) [Example 248, 4-Amino-6-chloro-2-(1-(3,3-dimethyl-2,3-dihydrofuro[2,3c]pyridine-5-yl)ethyl)thio-pyrimidine], for which the IC50 in assay [1] is 18 nM; in assay [2] (setting [3]), 72 nM.
`Nc1cc(Cl)nc(SC/C=C/C(=O)N2CCOCC2)n1` [Example 198, (E)-4-[4-[(4-amino-6-chloro-2-pyrimidinyl)thio]-1-oxo-2-butenyl]morpholine] gave an IC50 in assay [1] of 10000 nM. Besides, in assay [2], the inhibition at 50 µM came to 69%.
`Cc1coc2cnc(C(C)Sc3nc(N)cc(C(F)(F)F)n3)cc12` (stereo not shown) [Example 296, 4-Amino-6-trifluoromethyl-2-(1-(3-methyl-furo[2,3c]pyridin-5-yl)ethylthio)-pyrimidine]: the IC50 in assay [1] was 79 nM and 83 nM and 75 nM; in assay [2] (setting [3]) it was 54 nM and 111 nM.
Take `Cc1coc2cnc(C(C)Sc3nc(N)cc(Cl)n3)cc12` (stereo not shown) [Example 246, 4-Amino-6-chloro-2-(1-(3-methylfuro[2,3c]pyridine-5-yl)ethyl)thio-pyrimidine]: the IC50 is 31 nM in assay [1] and 24 nM in assay [2] (setting [3]).
